Assay results: PMC5218480 (PLoS ONE, 2017)

Tested on: MV-4-11 cells
Experiment: Gene expression microarray analysis (Affymetrix PrimeView) and GSEA
Type: cell-based, human
Set-up: RFU PODN (11730768_x_at) / Fold change /veh PODN (11730768_x_at) / RFU LINC00158 (11744669_a_at) / Fold change /veh LINC00158 (11744669_a_at) / RFU DUSP10 (11751237_a_at) / Fold change /veh DUSP10 (11751237_a_at) / RFU ID3 (11757404_x_at) / Fold change /veh ID3 (11757404_x_at) / RFU PLEKHG5 (11737974_s_at) / Fold change /veh PLEKHG5 (11737974_s_at) / RFU LRRC4B (11730491_at) / Fold change /veh LRRC4B (11730491_at) / RFU GIMAP4 (11747438_a_at) / Fold change /veh GIMAP4 (11747438_a_at) / RFU KRT8 (11758183_x_at) / Fold change /veh KRT8 (11758183_x_at) / RFU CNN1 (11734310_a_at) / Fold change /veh CNN1 (11734310_a_at) / RFU VPS37D (11726825_at) / Fold change /veh VPS37D (11726825_at) / RFU C10orf10 (11716522_x_at) / Fold change /veh C10orf10 (11716522_x_at) / RFU KIR2DL2 /// KIR2DL4 /// KIR2DL5A /// KIR2DL5B /// KIR2DS1 /// KIR2DS2 /// KIR2DS3 /// KIR2DS4 /// KIR3DL3 /// KIR3DL3 /// KIR3DS1 (11738374_at) / Fold change /veh KIR2DL2 /// KIR2DL4 /// KIR2DL5A /// KIR2DL5B /// KIR2DS1 /// KIR2DS2 /// KIR2DS3 /// KIR2DS4 /// KIR3DL3 /// KIR3DL3 /// KIR3DS1 (11738374_at) / RFU C1QL1 (11718748_at) / Fold change /veh C1QL1 (11718748_at) / RFU TMPRSS4 (11747572_a_at) / Fold change /veh TMPRSS4 (11747572_a_at) / RFU HAMP (11756126_x_at) / Fold change /veh HAMP (11756126_x_at) / RFU RNFT2 (11725882_a_at) / Fold change /veh RNFT2 (11725882_a_at) / RFU NR4A2 (11747474_a_at) / Fold change /veh NR4A2 (11747474_a_at) / RFU ABCC12 (11746883_a_at) / Fold change /veh ABCC12 (11746883_a_at) / RFU TMEM136 (11760407_x_at) / Fold change /veh TMEM136 (11760407_x_at) / RFU CLDN22 /// WWC2 (11732394_at) / Fold change /veh CLDN22 /// WWC2 (11732394_at) / RFU HLA-DPB1 (11760878_x_at) / Fold change /veh HLA-DPB1 (11760878_x_at) / RFU SPINT1 (11716480_a_at) / Fold change /veh SPINT1 (11716480_a_at) / RFU GAP43 (11754022_s_at) / Fold change /veh GAP43 (11754022_s_at) / RFU A4GNT (11735810_at) / Fold change /veh A4GNT (11735810_at) / RFU PRB3 (11715151_x_at) / Fold change /veh PRB3 (11715151_x_at) / RFU TUBB4B (11761932_at) / Fold change /veh TUBB4B (11761932_at) / RFU CAPN14 (11732068_a_at) / Fold change /veh CAPN14 (11732068_a_at) / RFU TMCC2 (11721928_a_at) / Fold change /veh TMCC2 (11721928_a_at) / RFU IRGQ (11745062_a_at) / Fold change /veh IRGQ (11745062_a_at) / RFU FAM174B (11720279_a_at) / Fold change /veh FAM174B (11720279_a_at) / RFU TMPRSS4 (11748680_a_at) / Fold change /veh TMPRSS4 (11748680_a_at) / RFU FAM212B (11763350_a_at) / Fold change /veh FAM212B (11763350_a_at) / RFU PLEKHG5 (11743358_a_at) / Fold change /veh PLEKHG5 (11743358_a_at) / RFU ZSCAN30 (11745921_a_at) / Fold change /veh ZSCAN30 (11745921_a_at) / RFU CMKLR1 (11741424_a_at) / Fold change /veh CMKLR1 (11741424_a_at) / RFU LOC101060620 /// MAPK8IP1 (11723275_at) / Fold change /veh LOC101060620 /// MAPK8IP1 (11723275_at) / RFU SPTSSB (11747773_x_at) / Fold change /veh SPTSSB (11747773_x_at) / RFU PRSS12 (11739890_at) / Fold change /veh PRSS12 (11739890_at) / RFU BIN1 (11741810_x_at) / Fold change /veh BIN1 (11741810_x_at) / RFU WNT11 (11732464_a_at) / Fold change /veh WNT11 (11732464_a_at) / RFU C10orf10 (11716521_a_at) / Fold change /veh C10orf10 (11716521_a_at) / RFU C5orf56 (11738089_at) / Fold change /veh C5orf56 (11738089_at) / RFU CYB561 (11721691_x_at) / Fold change /veh CYB561 (11721691_x_at) / RFU ANKRD19P (11752326_a_at) / Fold change /veh ANKRD19P (11752326_a_at) / RFU OR2T12 /// OR2T33 /// OR2T8 (11738714_s_at) / Fold change /veh OR2T12 /// OR2T33 /// OR2T8 (11738714_s_at) / RFU VCAN (11748164_a_at) / Fold change /veh VCAN (11748164_a_at) / RFU JSRP1 (11732532_at) / Fold change /veh JSRP1 (11732532_at) / RFU KRTAP10-11 (11738290_x_at) / Fold change /veh KRTAP10-11 (11738290_x_at) / RFU MYO3A (11730013_a_at) / Fold change /veh MYO3A (11730013_a_at) / RFU EBF3 (11725865_a_at) / Fold change /veh EBF3 (11725865_a_at) / RFU CAMK2N1 (11719241_x_at) / Fold change /veh CAMK2N1 (11719241_x_at) / RFU C5orf56 (11738088_a_at) / Fold change /veh C5orf56 (11738088_a_at) / RFU OLFML3 (11715873_a_at) / Fold change /veh OLFML3 (11715873_a_at) / RFU LOC100653217 /// NTM (11731650_a_at) / Fold change /veh LOC100653217 /// NTM (11731650_a_at) / RFU MAPK11 (11762145_a_at) / Fold change /veh MAPK11 (11762145_a_at) / RFU FIZ1 (11724087_x_at) / Fold change /veh FIZ1 (11724087_x_at) / RFU OASL (11726364_x_at) / Fold change /veh OASL (11726364_x_at) / RFU SOX15 (11748057_x_at) / Fold change /veh SOX15 (11748057_x_at) / RFU CD79A (11719716_a_at) / Fold change /veh CD79A (11719716_a_at) / RFU HIST1H1D (11736915_at) / Fold change /veh HIST1H1D (11736915_at) / RFU CASKIN2 (11723855_a_at) / Fold change /veh CASKIN2 (11723855_a_at) / RFU LOC730098 (11760151_x_at) / Fold change /veh LOC730098 (11760151_x_at) / RFU OR4N2 (11742367_at) / Fold change /veh OR4N2 (11742367_at) / RFU PRRT2 (11749266_a_at) / Fold change /veh PRRT2 (11749266_a_at) / RFU SNX32 (11753110_a_at) / Fold change /veh SNX32 (11753110_a_at) / RFU CDHR5 (11726645_a_at) / Fold change /veh CDHR5 (11726645_a_at) / RFU RCAN1 (11760418_a_at) / Fold change /veh RCAN1 (11760418_a_at) / RFU FAM167A (11723789_a_at) / Fold change /veh FAM167A (11723789_a_at) / RFU FAM26E (11764081_at) / Fold change /veh FAM26E (11764081_at) / RFU ISYNA1 (11749810_s_at) / Fold change /veh ISYNA1 (11749810_s_at) / RFU ACY1 (11761880_at) / Fold change /veh ACY1 (11761880_at) / RFU 11764098_at / Fold change /veh 11764098_at / RFU SAMD14 (11745864_x_at) / Fold change /veh SAMD14 (11745864_x_at) / RFU NPB (11741838_a_at) / Fold change /veh NPB (11741838_a_at) / RFU TMPRSS6 (11731388_a_at) / Fold change /veh TMPRSS6 (11731388_a_at) / RFU KRTAP10-2 (11738614_at) / Fold change /veh KRTAP10-2 (11738614_at) / RFU ARHGAP8 /// PRR5-ARHGAP8 (11727945_x_at) / Fold change /veh ARHGAP8 /// PRR5-ARHGAP8 (11727945_x_at) / RFU KRTAP5-7 /// NADSYN1 (11734609_at) / Fold change /veh KRTAP5-7 /// NADSYN1 (11734609_at) / RFU RASL12 (11751679_a_at) / Fold change /veh RASL12 (11751679_a_at) / RFU CDKN2B (11736163_a_at) / Fold change /veh CDKN2B (11736163_a_at) / RFU PRF1 (11729649_at) / Fold change /veh PRF1 (11729649_at) / RFU, ZNF638 /// ZNF638-IT1 / Fold change vs veh, ZNF638 /// ZNF638-IT1 / RFU, PANK3 / Fold change vs veh, PANK3 / RFU, SH3YL1 / Fold change vs veh, SH3YL1 / RFU, ZEB2 / Fold change vs veh, ZEB2 / RFU, NRIP1 / Fold change vs veh, NRIP1 / RFU, PTTG1IP / Fold change vs veh, PTTG1IP / RFU, CAPN2 / Fold change vs veh, CAPN2 / RFU, MED14 / Fold change vs veh, MED14 / RFU, SNORA58 / Fold change vs veh, SNORA58 / RFU, C1orf63 / Fold change vs veh, C1orf63 / RFU, LRRFIP1 / Fold change vs veh, LRRFIP1 / RFU, NDUFAF7 / Fold change vs veh, NDUFAF7 / RFU, SLC12A2 / Fold change vs veh, SLC12A2 / RFU, IBTK / Fold change vs veh, IBTK / RFU, ESF1 / Fold change vs veh, ESF1 / Fold change vs veh, TMEM50B / RFU, TAOK1 / Fold change vs veh, TAOK1 / RFU, ACBD3 / Fold change vs veh, ACBD3 / RFU, TMA16 / Fold change vs veh, TMA16 / RFU, RWDD3 / Fold change vs veh, RWDD3 / RFU, BCAT1 / Fold change vs veh, BCAT1 / RFU, EDEM3 / Fold change vs veh, EDEM3 / RFU, TMEM33 / Fold change vs veh, TMEM33 / RFU, WDR75 / Fold change vs veh, WDR75 / RFU, AHCTF1 / Fold change vs veh, AHCTF1 / RFU, TFRC / Fold change vs veh, TFRC / RFU, ZDHHC17 / Fold change vs veh, ZDHHC17 / RFU, NOM1 / Fold change vs veh, NOM1 / RFU, ARL8B / Fold change vs veh, ARL8B / RFU, ZBTB11 / Fold change vs veh, ZBTB11 / RFU, TAMM41 / Fold change vs veh, TAMM41 / RFU, KIAA1704 /// LOC100996395 / Fold change vs veh, KIAA1704 /// LOC100996395 / RFU, ING1 / Fold change vs veh, ING1 / RFU, TRMT61B / Fold change vs veh, TRMT61B / RFU, FUBP3 / Fold change vs veh, FUBP3 / RFU, TP53 / Fold change vs veh, TP53 / RFU, TNKS2 / Fold change vs veh, TNKS2 / RFU, ZFP14 / Fold change vs veh, ZFP14 / RFU, ACTR2 / Fold change vs veh, ACTR2 / RFU, PPP3R1 / Fold change vs veh, PPP3R1 / RFU, PIK3R1 / Fold change vs veh, PIK3R1 / RFU, HNRNPA1 / Fold change vs veh, HNRNPA1 / RFU, RNF170 / Fold change vs veh, RNF170 / RFU, ZNF28 / Fold change vs veh, ZNF28 / RFU, RNGTT / Fold change vs veh, RNGTT / RFU, OGT / Fold change vs veh, OGT / RFU, BRD1 / Fold change vs veh, BRD1 / RFU, MARS / Fold change vs veh, MARS / RFU, ZNF655 / Fold change vs veh, ZNF655 / RFU, FAHD1 / Fold change vs veh, FAHD1 / RFU, BDP1 / Fold change vs veh, BDP1 / RFU, LRRCC1 / Fold change vs veh, LRRCC1 / RFU, ARID1A / Fold change vs veh, ARID1A / RFU, ZNF146 / Fold change vs veh, ZNF146 / RFU, ZNF330 / Fold change vs veh, ZNF330 / RFU, GPN3 / Fold change vs veh, GPN3 / RFU, C9orf123 / Fold change vs veh, C9orf123 / RFU, N4BP2L2 / Fold change vs veh, N4BP2L2 / RFU, ARFIP1 / Fold change vs veh, ARFIP1 / RFU, FAM179B / Fold change vs veh, FAM179B / RFU, BCL10 / Fold change vs veh, BCL10 / RFU, UHRF1BP1L / Fold change vs veh, UHRF1BP1L / RFU, BET1 / Fold change vs veh, BET1 / RFU, CNOT2 / Fold change vs veh, CNOT2 / RFU, ZNF268 / Fold change vs veh, ZNF268 / Fold change vs veh, ZNF507 / RFU, DGCR2 / Fold change vs veh, DGCR2 / RFU, WDSUB1 / Fold change vs veh, WDSUB1 / Fold change vs veh, HSP90B1 /// MIR3652 / RFU, ADSS / Fold change vs veh, ADSS / RFU, GK / Fold change vs veh, GK / RFU, ZNF148 / Fold change vs veh, ZNF148 / RFU, TAF9 / Fold change vs veh, TAF9 / RFU, SLC1A5 / Fold change vs veh, SLC1A5 / RFU, SLMO2 / Fold change vs veh, SLMO2 / RFU, ABCC4 / Fold change vs veh, ABCC4 / RFU, LOC101060439 /// RAP1B / Fold change vs veh, LOC101060439 /// RAP1B / RFU, RFX7 / Fold change vs veh, RFX7 / RFU, GTPBP10 / Fold change vs veh, GTPBP10 / RFU, CNEP1R1 / Fold change vs veh, CNEP1R1 / RFU, BIVM-ERCC5 /// ERCC5 / Fold change vs veh, BIVM-ERCC5 /// ERCC5 / RFU, ILF3 / Fold change vs veh, ILF3 / RFU 11762660_at / Fold change /veh 11762660_at / RFU VCAN (11757783_s_at) / Fold change /veh VCAN (11757783_s_at) / RFU DDX43 (11728927_at) / Fold change /veh DDX43 (11728927_at) / RFU KRT8 (11758188_x_at) / Fold change /veh KRT8 (11758188_x_at) / RFU NKD1 (11759106_at) / Fold change /veh NKD1 (11759106_at) / RFU SRD5A1 (11742802_a_at) / Fold change /veh SRD5A1 (11742802_a_at) / RFU TPSAB1 /// TPSB2 (11721975_s_at) / Fold change /veh TPSAB1 /// TPSB2 (11721975_s_at) / RFU GSTM3 (11746129_a_at) / Fold change /veh GSTM3 (11746129_a_at) / RFU IL23R (11737362_x_at) / Fold change /veh IL23R (11737362_x_at) / RFU TMEM51 (11727254_a_at) / Fold change /veh TMEM51 (11727254_a_at) / RFU PIWIL2 (11732686_x_at) / Fold change /veh PIWIL2 (11732686_x_at) / RFU ORM1 (11744905_x_at) / Fold change /veh ORM1 (11744905_x_at) / RFU CCDC152 (11743942_at) / Fold change /veh CCDC152 (11743942_at) / RFU ECM1 (11717891_a_at) / Fold change /veh ECM1 (11717891_a_at) / RFU IL23R (11748794_a_at) / Fold change /veh IL23R (11748794_a_at) / RFU TNFAIP8L3 (11732012_x_at) / Fold change /veh TNFAIP8L3 (11732012_x_at) / RFU MBOAT4 (11741988_at) / Fold change /veh MBOAT4 (11741988_at) / RFU 11764193_at / Fold change /veh 11764193_at / RFU TMEM53 (11763286_at) / Fold change /veh TMEM53 (11763286_at) / RFU MAGEB2 (11727129_at) / Fold change /veh MAGEB2 (11727129_at) / RFU TMEM200A (11744735_a_at) / Fold change /veh TMEM200A (11744735_a_at) / RFU CCDC152 (11751479_a_at) / Fold change /veh CCDC152 (11751479_a_at) / RFU FAM211A (11726209_a_at) / Fold change /veh FAM211A (11726209_a_at) / RFU RGS16 (11746705_a_at) / Fold change /veh RGS16 (11746705_a_at) / RFU VCAN (11755009_s_at) / Fold change /veh VCAN (11755009_s_at) / RFU RHOB (11743442_s_at) / Fold change /veh RHOB (11743442_s_at) / RFU RGS16 (11720943_a_at) / Fold change /veh RGS16 (11720943_a_at) / RFU RGS16 (11720944_at) / Fold change /veh RGS16 (11720944_at) / RFU, VPS4B / Fold change vs veh, VPS4B / RFU, CREB1 / Fold change vs veh, CREB1 / RFU, DNAJC13 / Fold change vs veh, DNAJC13 / RFU, GNAQ / Fold change vs veh, GNAQ / RFU, CDK5R1 / Fold change vs veh, CDK5R1 / RFU, ZRANB3 / Fold change vs veh, ZRANB3 / RFU, CUL4A / Fold change vs veh, CUL4A / RFU, CCNY / Fold change vs veh, CCNY / RFU, UFL1 / Fold change vs veh, UFL1 / RFU, COG3 / Fold change vs veh, COG3 / RFU, DIAPH2 / Fold change vs veh, DIAPH2 / RFU, SKA2 / Fold change vs veh, SKA2 / RFU, AFF3 / Fold change vs veh, AFF3 / RFU, LMF1 / Fold change vs veh, LMF1 / RFU, IPO11 / Fold change vs veh, IPO11 / RFU, DFFB / Fold change vs veh, DFFB / RFU, FOXP1 / Fold change vs veh, FOXP1 / RFU, CARD8 / Fold change vs veh, CARD8 / RFU, STRN3 / Fold change vs veh, STRN3 / RFU, ADK / Fold change vs veh, ADK / RFU, RASSF2 / Fold change vs veh, RASSF2 / RFU, WIPF1 / Fold change vs veh, WIPF1 / RFU, LARP1B / Fold change vs veh, LARP1B / RFU, RASA1 / Fold change vs veh, RASA1 / RFU, RB1 / Fold change vs veh, RB1 / RFU, PPFIA1 / Fold change vs veh, PPFIA1 / RFU, MAT2A / Fold change vs veh, MAT2A / RFU, CCT5 / Fold change vs veh, CCT5 / RFU, WDR92 / Fold change vs veh, WDR92 / RFU, CUX1 / Fold change vs veh, CUX1 / RFU, TTC7A / Fold change vs veh, TTC7A / RFU, TMEM135 / Fold change vs veh, TMEM135 / RFU, DEPTOR / Fold change vs veh, DEPTOR / RFU, CPM / Fold change vs veh, CPM / RFU, DNAJB6 / Fold change vs veh, DNAJB6 / RFU, CACNA2D3 / Fold change vs veh, CACNA2D3 / RFU, DTX4 / Fold change vs veh, DTX4 / RFU, TFCP2 / Fold change vs veh, TFCP2 / RFU, GMCL1 /// GMCL1P1 / Fold change vs veh, GMCL1 /// GMCL1P1 / RFU, AEBP2 / Fold change vs veh, AEBP2 / RFU, SNHG1 /// SNORD22 /// SNORD25 /// SNORD26 /// SNORD27 /// SNORD28 /// SNORD29 /// SNORD31 / Fold change vs veh, SNHG1 /// SNORD22 /// SNORD25 /// SNORD26 /// SNORD27 /// SNORD28 /// SNORD29 /// SNORD31 / Fold change (Aza/veh), C12orf56 (ProbeSet 11735607_a_at) / Fold change (ACY-1035/veh), C12orf56 (ProbeSet 11735607_a_at) / Fold change (Aza/veh), FGFR1OP (ProbeSet 11751329_s_at) / Fold change (ACY-1035/veh), FGFR1OP (ProbeSet 11751329_s_at) / Fold change (Aza/veh), VPS36 (ProbeSet 11739960_a_at) / Fold change (ACY-1035/veh), VPS36 (ProbeSet 11739960_a_at) / RFU SYPL1 (11715823_x_at) / Fold change /veh SYPL1 (11715823_x_at) / RFU IGFBP7 (11715501_s_at) / Fold change /veh IGFBP7 (11715501_s_at) / RFU REEP3 (11722064_at) / Fold change /veh REEP3 (11722064_at) / RFU IGLL1 (11728026_x_at) / Fold change /veh IGLL1 (11728026_x_at): dose or concentration left out as unconfirmed
Details: MV-4-11 cells, 48 hours

Nc1ccc(-c2cccs2)cc1NC(=O)c1ccc2c(c1)cc(C1CC1)n2CCN1CCOCC1 [ACY-1035]
RFU VCAN (11748164_a_at): 5.33 RFU
